Tests used:
mGluR5 receptors = mGluR5 receptors (Homo sapiens, UniProt P41594); experiment: Activity on mGluR5 receptors (test not specified)
mGluR1 receptors = mGluR1 receptors (Homo sapiens, UniProt Q13255); experiment: Activity on mGluR1 receptors (test not specified)
rat mGluR1 = molecular target: T1, rat mGluR1 (Rattus norvegicus, UniProt P23385); experiment: MGluR1 receptor binding test ([3H]R214127 displacement, rat cerebellar membrane preparation); details: rat mGluR1, [3H]R214127 3 nM; read-out: mGlu1 Ki
T1 construct: rat cerebellar membrane preparation was used; from tissue; host or cells: rat cerebellum (membrane preparation)
T1 sequence (P23385 19-1199): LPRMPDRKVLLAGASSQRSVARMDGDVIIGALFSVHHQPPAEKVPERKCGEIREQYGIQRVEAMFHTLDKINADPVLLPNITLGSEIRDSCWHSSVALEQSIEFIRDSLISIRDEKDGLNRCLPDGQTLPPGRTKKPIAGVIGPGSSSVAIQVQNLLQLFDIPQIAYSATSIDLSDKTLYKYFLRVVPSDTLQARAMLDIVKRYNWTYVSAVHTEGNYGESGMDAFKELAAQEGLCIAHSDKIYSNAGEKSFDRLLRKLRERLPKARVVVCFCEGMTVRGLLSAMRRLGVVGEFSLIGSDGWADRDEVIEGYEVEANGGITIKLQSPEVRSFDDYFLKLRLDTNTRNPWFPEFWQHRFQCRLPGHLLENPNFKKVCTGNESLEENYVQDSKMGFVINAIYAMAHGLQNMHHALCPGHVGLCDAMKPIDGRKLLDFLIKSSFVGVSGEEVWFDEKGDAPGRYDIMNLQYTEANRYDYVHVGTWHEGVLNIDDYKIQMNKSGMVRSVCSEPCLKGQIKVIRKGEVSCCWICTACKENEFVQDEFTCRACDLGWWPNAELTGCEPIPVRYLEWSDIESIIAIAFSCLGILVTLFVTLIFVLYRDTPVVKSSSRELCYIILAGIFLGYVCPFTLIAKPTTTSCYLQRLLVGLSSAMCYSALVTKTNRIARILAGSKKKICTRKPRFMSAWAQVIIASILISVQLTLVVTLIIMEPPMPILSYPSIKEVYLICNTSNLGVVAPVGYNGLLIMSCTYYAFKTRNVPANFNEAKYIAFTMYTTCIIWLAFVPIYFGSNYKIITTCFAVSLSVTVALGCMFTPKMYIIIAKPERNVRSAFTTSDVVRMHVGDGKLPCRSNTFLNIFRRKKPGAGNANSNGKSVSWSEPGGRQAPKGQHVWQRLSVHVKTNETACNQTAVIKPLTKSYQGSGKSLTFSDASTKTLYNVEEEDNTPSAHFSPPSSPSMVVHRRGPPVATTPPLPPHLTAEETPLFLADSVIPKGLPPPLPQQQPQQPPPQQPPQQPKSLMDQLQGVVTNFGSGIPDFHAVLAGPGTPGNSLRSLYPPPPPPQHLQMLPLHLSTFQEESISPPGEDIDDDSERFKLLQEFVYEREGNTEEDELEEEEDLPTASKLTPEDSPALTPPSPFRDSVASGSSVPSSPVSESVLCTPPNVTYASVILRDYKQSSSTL
Outline: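 Rat cerebellar membranes with 3 nM [3H]R214127; nonspecific binding defined by 1 μM R214127. IC50 from displacement curves by nonlinear regression, converted to Ki by Cheng–Prusoff.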

rat mGluR5 = molecular target: T2, rat mGluR5 (Rattus norvegicus, UniProt P31424); experiment: MGluR5 receptor binding test ([3H]-M-MPEP displacement, rat cerebro-cortical membrane preparation); details: rat mGluR5, [3H]-M-MPEP 2 nM; read-out: mGlu5 Ki
T2 construct: Rat cerebro-cortical membrane preparation was used; from tissue; host or cells: rat cerebral cortex (membrane preparation)
T2 sequence (P31424 21-1203): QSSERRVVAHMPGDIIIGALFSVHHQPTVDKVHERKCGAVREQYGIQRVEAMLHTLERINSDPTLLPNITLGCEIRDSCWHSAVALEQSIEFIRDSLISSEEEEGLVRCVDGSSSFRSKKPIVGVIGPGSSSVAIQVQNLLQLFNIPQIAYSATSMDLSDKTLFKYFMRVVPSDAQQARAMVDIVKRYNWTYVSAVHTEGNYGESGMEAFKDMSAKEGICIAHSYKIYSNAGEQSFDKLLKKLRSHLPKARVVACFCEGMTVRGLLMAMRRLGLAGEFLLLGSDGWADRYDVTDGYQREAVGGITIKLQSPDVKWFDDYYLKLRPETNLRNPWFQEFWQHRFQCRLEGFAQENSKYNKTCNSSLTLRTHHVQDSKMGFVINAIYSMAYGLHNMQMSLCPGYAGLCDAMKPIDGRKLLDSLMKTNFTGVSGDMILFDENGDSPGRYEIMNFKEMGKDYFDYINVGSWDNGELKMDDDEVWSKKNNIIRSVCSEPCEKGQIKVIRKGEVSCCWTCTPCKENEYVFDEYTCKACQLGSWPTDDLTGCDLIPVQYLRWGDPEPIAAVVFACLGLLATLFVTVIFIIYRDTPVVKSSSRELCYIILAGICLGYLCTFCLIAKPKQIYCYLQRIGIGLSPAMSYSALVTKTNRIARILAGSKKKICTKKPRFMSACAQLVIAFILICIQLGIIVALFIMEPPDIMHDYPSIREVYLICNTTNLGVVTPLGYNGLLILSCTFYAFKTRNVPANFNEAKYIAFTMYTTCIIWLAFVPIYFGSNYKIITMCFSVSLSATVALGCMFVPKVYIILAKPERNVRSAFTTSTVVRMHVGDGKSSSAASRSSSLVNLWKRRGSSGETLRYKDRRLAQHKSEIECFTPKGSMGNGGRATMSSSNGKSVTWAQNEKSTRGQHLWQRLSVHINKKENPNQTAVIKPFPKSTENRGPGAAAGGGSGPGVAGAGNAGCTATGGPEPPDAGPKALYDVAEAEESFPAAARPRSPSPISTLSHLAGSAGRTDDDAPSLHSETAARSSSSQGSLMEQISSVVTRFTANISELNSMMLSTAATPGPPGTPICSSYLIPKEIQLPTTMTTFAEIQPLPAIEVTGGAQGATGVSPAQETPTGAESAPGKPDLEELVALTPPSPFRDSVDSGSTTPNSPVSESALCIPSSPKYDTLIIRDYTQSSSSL
Experimental: Rat cerebro-cortical membrane preparation was used to determine the binding characteristics of reference compounds and novel compounds to the rat mGluR5. The A18 cell line expressing hmGluR5a (purchased from Euroscreen) was used to determine binding characteristics of the chemical compounds to the human mGluR5a receptor. [3H]-M-MPEP (2 nM) was used as radioligand. The nonspecific binding was determined in the presence of 10 μM M-MPEP.

Chain of mGluR1 receptors (Q13255 19-1194): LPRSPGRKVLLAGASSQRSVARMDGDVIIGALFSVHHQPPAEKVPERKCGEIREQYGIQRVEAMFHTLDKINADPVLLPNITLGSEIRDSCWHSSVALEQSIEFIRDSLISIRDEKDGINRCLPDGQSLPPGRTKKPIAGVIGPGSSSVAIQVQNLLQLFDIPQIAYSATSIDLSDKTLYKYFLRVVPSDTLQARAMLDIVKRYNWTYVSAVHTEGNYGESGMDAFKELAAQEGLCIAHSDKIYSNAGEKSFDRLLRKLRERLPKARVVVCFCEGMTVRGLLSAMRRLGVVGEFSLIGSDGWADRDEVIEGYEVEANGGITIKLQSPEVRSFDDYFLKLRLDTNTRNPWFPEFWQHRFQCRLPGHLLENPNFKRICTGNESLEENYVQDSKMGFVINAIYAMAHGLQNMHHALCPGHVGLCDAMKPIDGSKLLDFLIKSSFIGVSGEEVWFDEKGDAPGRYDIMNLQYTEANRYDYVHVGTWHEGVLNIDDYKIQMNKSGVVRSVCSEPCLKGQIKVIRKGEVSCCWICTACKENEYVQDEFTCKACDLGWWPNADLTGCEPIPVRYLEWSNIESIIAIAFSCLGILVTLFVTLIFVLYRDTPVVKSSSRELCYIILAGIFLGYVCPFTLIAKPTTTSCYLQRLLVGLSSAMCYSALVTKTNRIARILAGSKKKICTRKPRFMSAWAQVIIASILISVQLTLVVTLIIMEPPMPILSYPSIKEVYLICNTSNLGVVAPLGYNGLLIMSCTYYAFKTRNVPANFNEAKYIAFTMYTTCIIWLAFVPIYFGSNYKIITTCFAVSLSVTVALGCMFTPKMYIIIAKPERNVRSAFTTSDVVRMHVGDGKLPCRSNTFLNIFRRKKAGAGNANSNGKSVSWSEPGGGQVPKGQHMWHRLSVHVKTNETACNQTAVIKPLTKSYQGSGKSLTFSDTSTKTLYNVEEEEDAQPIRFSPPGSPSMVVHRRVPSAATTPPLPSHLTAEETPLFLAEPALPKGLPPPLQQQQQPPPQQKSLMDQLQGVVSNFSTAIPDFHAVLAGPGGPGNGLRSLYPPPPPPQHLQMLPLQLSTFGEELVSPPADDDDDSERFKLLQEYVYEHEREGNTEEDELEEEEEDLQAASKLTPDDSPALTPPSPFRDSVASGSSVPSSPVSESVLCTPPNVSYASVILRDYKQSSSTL
Chain of mGluR5 receptors (P41594 21-1212): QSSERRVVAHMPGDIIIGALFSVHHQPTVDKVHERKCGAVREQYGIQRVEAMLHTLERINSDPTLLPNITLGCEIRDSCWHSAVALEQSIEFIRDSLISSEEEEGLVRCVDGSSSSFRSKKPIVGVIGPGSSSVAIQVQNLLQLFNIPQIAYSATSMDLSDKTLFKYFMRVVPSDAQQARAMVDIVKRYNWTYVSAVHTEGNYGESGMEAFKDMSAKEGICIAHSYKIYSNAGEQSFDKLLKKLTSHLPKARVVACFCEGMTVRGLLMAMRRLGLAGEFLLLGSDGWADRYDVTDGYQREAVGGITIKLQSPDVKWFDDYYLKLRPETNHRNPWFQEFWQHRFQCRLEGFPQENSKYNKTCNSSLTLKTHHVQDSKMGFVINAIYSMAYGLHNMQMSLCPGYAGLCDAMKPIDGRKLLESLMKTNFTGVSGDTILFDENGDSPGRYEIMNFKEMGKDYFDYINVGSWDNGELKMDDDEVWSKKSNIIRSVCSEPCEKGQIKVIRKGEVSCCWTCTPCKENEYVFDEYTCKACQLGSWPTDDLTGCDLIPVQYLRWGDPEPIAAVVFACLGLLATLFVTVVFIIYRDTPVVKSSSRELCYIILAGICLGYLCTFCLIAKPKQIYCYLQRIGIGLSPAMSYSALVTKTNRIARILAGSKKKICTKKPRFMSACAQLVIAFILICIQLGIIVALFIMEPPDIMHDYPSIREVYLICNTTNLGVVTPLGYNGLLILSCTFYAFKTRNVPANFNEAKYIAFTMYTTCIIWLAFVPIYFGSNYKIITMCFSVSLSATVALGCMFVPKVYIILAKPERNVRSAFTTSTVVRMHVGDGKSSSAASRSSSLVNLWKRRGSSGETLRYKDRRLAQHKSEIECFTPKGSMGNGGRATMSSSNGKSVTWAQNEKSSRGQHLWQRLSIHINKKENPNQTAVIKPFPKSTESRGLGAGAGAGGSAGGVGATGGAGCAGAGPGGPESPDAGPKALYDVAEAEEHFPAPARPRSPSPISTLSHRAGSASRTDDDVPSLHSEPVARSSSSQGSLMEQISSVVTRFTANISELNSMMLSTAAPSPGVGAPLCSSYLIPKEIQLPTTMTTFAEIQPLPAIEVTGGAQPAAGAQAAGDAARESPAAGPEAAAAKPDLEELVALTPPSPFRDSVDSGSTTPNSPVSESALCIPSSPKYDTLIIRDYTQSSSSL

Row | Structure (SMILES) | activity on mGluR5 receptors (mGluR5 receptors) | activity on mGluR1 receptors (mGluR1 receptors) | Ki (rat mGluR1) [nM] | Ki (rat mGluR5) [nM]
1 | O=S(=O)(c1ccccc1)c1cnc2c(C(F)(F)F)cccc2c1-c1ccccc1 [3-benzenesulfonyl-4-phenyl-8-trifluoromethyl-quinoline] | inactive | inactive |  | 
2 | COc1ccc(S(=O)(=O)c2cnc3c(F)cccc3c2-c2cccc(F)c2)cc1 [Compound 55] |  |  | > 500 | < 200
3 | COc1ccc(-c2c(S(=O)(=O)c3cc(Cl)cc(Cl)c3)cnc3ccc(F)cc23)cc1 [Compound 125] |  |  | > 500 | < 200
4 | O=S(=O)(c1cc(Cl)cc(Cl)c1)c1cnc2cc(F)ccc2c1-c1ccc(F)c(F)c1 [Compound 239] |  |  | > 500 | < 200
5 | N#Cc1cc(S(=O)(=O)c2cnc3cc(F)ccc3c2-c2cccc(F)c2)ccc1F [Compound 216] |  |  | > 500 | < 200
6 | N#Cc1cc(S(=O)(=O)c2cnc3ccccc3c2-c2ccc(Cl)c(Cl)c2)ccc1F [Compound 232] |  |  | > 500 | < 200
7 | Cc1ccc(S(=O)(=O)c2cnc3c(F)cccc3c2-c2cccc(F)c2)cc1F [Compound 111] |  |  | > 500 | < 200
8 | O=S(=O)(c1cccc(F)c1)c1cnc2cc(F)ccc2c1-c1ccc(F)cc1 [Compound 16] |  |  | > 500 | < 200
9 | O=S(=O)(c1cc(F)cc(F)c1)c1cnc2cc(Cl)c(F)cc2c1-c1ccc(F)cc1 [Compound 202] |  |  | > 500 | 200 to 500
10 | Cc1ccc(S(=O)(=O)c2cnc3cc(F)ccc3c2-c2cccc(F)c2)cc1F [Compound 85] |  |  | > 500 | < 200
11 | N#Cc1ccc2c(-c3ccccc3F)c(S(=O)(=O)c3cc(F)cc(F)c3)cnc2c1 [Compound 199] |  |  | > 500 | 200 to 500
12 | COc1ccc(S(=O)(=O)c2cnc3ccc(F)cc3c2-c2ccc(F)cc2)cc1Cl [Compound 165] |  |  | > 500 | > 500
13 | COc1ccc(-c2c(S(=O)(=O)c3cc(Cl)cc(Cl)c3)cnc3cc(F)ccc23)cc1 [Compound 81] |  |  | > 500 | < 200
14 | N#Cc1cc(F)cc(S(=O)(=O)c2cnc3cc(Cl)ccc3c2-c2ccc(Cl)cc2)c1 [Compound 269] |  |  | > 500 | < 200
15 | Cc1ccc(S(=O)(=O)c2cnc3c(F)cccc3c2-c2ccc(F)cc2)cc1F [Compound 114] |  |  | > 500 | < 200
16 | N#Cc1cccc(S(=O)(=O)c2cnc3cc(Cl)ccc3c2-c2ccc(Cl)cc2)c1 [Compound 177] |  |  | > 500 | < 200
17 | COc1ccc(S(=O)(=O)c2cnc3cc(F)ccc3c2-c2ccc(Cl)cc2)cc1 [Compound 11] |  |  | > 500 | < 200
18 | Cc1ccc(S(=O)(=O)c2cnc3cc(F)ccc3c2-c2cccc(Cl)c2)cc1F [Compound 84] |  |  | > 500 | < 200
19 | O=S(=O)(c1ccc(Cl)cc1)c1cnc2c(Cl)cccc2c1-c1cccc(Cl)c1 [Compound 6] |  |  | > 500 | 200 to 500

More lines, now with the values ahead:

Row | activity on mGluR5 receptors (mGluR5 receptors) | activity on mGluR1 receptors (mGluR1 receptors) | Ki (rat mGluR1) [nM] | Ki (rat mGluR5) [nM] | Structure (SMILES)
20 |  |  | 200 to 500 | < 200 | O=S(=O)(c1ccc(F)c(Cl)c1)c1cnc2ccc(F)cc2c1-c1ccc(Cl)cc1 [Compound 153]
21 |  |  | > 500 | < 200 | N#Cc1cc(F)cc(S(=O)(=O)c2cnc3ccccc3c2-c2ccc(F)cc2)c1 [Compound 271]
22 |  |  | 200 to 500 | < 200 | Nc1ccc2c(-c3cccc(F)c3)c(S(=O)(=O)c3ccc(F)c(F)c3)cnc2c1 [Compound 264, 7-Amino-3-(3,4-difluoro-benzenesulfonyl)-4-(3-fluoro-phenyl)-quinoline]
23 |  |  | > 500 | < 200 | COc1cccc(S(=O)(=O)c2cnc3ccc(F)cc3c2-c2cccc(Cl)c2)c1 [Compound 72]
24 |  |  | 200 to 500 | < 200 | O=S(=O)(c1ccc(F)c(Cl)c1)c1cnc2ccc(F)cc2c1-c1ccc(F)cc1 [Compound 155]
25 |  |  | 200 to 500 | < 200 | O=S(=O)(c1ccc(F)c(F)c1)c1cnc2c(F)cccc2c1-c1cc(F)cc(F)c1 [Compound 236]
26 |  |  | < 200 | < 200 | N#Cc1cc(S(=O)(=O)c2cnc3cc(Cl)ccc3c2-c2cccc(Cl)c2)ccc1F [Compound 242]
27 |  |  | 200 to 500 | < 200 | N#Cc1cccc(S(=O)(=O)c2cnc3ccc(F)cc3c2-c2cccc(Cl)c2)c1 [Compound 135]
28 |  |  | < 200 | < 200 | O=S(=O)(c1ccc(F)c(Cl)c1)c1cnc2cc(Cl)ccc2c1-c1cc(F)cc(F)c1 [Compound 262]
29 |  |  | 200 to 500 | < 200 | O=S(=O)(c1ccc(F)c(Cl)c1)c1cnc2c(F)cccc2c1-c1ccc(Cl)cc1 [Compound 208]
30 |  |  | 200 to 500 | 200 to 500 | O=S(=O)(c1cc(F)cc(F)c1)c1cnc2ccc(F)cc2c1-c1cccc(F)c1 [Compound 65]
31 |  |  | < 200 | < 200 | COc1ccc(S(=O)(=O)c2cnc3c(F)cccc3c2-c2ccc(Cl)cc2)cc1 [Compound 54]
32 |  |  | < 200 | < 200 | N#Cc1cccc(S(=O)(=O)c2cnc3cc(Cl)ccc3c2-c2ccccc2F)c1 [Compound 227]
33 |  |  | 200 to 500 | < 200 | O=S(=O)(c1cc(Cl)cc(Cl)c1)c1cnc2c(F)cccc2c1-c1ccc(Cl)cc1 [Compound 159]
34 |  |  | < 200 | < 200 | N#Cc1cccc(S(=O)(=O)c2cnc3cc(Cl)ccc3c2-c2cccc(F)c2)c1 [Compound 234]
35 |  |  | 200 to 500 | < 200 | O=S(=O)(c1cc(Cl)cc(Cl)c1)c1cnc2cc(Cl)ccc2c1-c1ccccc1F [Compound 255]
36 |  |  | 200 to 500 | < 200 | N#Cc1cccc(S(=O)(=O)c2cnc3c(F)c(Cl)ccc3c2-c2cccc(Cl)c2)c1 [Compound 253]
